Consider 10 compounds from patent US20090137572A1, “2-substituted-4-heteroaryl-pyrimidines useful for the treatment of proliferative disorders” (priority 2004, published 2009).

One series concerns the target CDK2-cyclin A (Homo sapiens, UniProt P24941). Nature of the series: Kinase assay (radioactive phosphate incorporation), CDK2-cyclin A. The settings on record: read-out: Kinase Inhibition pIC50 CDK2-cyclin A (converted). The format is biochemical. The protocol:
Kinase assays. The compounds of the invention above were investigated for their ability to inhibit the enzymatic activity of various protein kinases (Table 2). This was achieved by measurement of incorporation of radioactive phosphate from ATP into appropriate polypeptide substrates. Recombinant protein kinases and kinase complexes were produced or obtained commercially. Assays were performed using 96-well plates and appropriate assay buffers (typically 25 mM β-glycerophosphate, 20 mM MOPS, 5 mM EGTA, 1 mM DTT, 1 mM […], pH 7.4), into which were added 2-4 μg of active enzyme with appropriate substrates. The reactions were initiated by addition of Mg/ATP mix (15 mM MgCl2+100 μM ATP with 30-50 kBq per well of [γ-^32P]-ATP) and mixtures incubated as required at 30° C. Reactions were stopped on ice, followed by filtration through p81 filterplates or GF/C filterplates (Whatman Polyfiltronics, Kent, UK). After washing 3 times with 75 mM aq orthophosphoric acid, plates were dried, scintillant added and incorporated radioactivity measured in a scintillation counter (TopCount, Packard Instruments, Pangbourne, Berks, UK). Compounds for kinase assay were made up as 10 mM stocks in DMSO and diluted into 10% DMSO in assay buffer.

For a further series, the target named is CDK2-cycline E (Homo sapiens, UniProt P24941). The experiment in a line: Kinase assay (radioactive phosphate incorporation), CDK2-cyclin E. The settings on record: read-out: Kinase Inhibition pIC50 CDK2-cycline E (converted). It counts as biochemical. In short, it runs like this: (§1)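 Inhibition measured as 32P transfer from ATP (100 μM, 15 mM MgCl2) onto peptide substrates at 30° C. Each assay used 2-4 μg active recombinant enzyme in pH 7.4 buffer. Reactions stopped on ice, filtered, acid-washed and counted; compounds diluted into 10% DMSO in assay buffer.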

For another series, the target named is CDK7/cyclin H (Homo sapiens, UniProt P50613). Nature of the series: CDK 7 assay (CTD peptide substrate). The format is biochemical. The settings on record: read-out: Kinase Inhibition pIC50 CDK7-cyclin H (converted). In a few lines: (§2)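 32P transfer from 100 μM ATP (trace [γ-32P]ATP) to a biotinyl CTD (YSPTSPS)4 peptide was measured after 45 min at 30 °C in pH 7.2 MOPS buffer, 15 mM MgCl2, using recombinant human CDK7/cyclin H or CDK9/cyclin T1. Signal read by filter binding and scintillation counting.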
CDK7/cyclin H, sequence (P50613 whole entry): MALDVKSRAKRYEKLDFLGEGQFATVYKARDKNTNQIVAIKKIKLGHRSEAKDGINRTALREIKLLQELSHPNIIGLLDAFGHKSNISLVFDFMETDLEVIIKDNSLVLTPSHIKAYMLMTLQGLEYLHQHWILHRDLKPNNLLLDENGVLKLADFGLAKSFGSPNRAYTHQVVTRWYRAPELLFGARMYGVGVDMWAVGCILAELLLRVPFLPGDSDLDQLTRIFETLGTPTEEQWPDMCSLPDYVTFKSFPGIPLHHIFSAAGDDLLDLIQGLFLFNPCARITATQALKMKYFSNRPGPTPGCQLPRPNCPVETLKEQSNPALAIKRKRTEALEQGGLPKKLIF
CDK7/cyclin H, sequence (P51946 whole entry partner): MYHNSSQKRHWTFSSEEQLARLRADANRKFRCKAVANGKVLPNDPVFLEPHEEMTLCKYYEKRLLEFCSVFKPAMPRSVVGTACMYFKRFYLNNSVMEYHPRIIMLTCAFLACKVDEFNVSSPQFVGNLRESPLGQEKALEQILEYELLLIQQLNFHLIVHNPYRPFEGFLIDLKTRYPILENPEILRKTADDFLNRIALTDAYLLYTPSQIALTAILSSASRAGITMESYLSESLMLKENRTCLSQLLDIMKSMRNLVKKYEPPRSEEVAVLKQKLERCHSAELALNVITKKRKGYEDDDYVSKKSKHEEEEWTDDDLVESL

A further series deals with CDK9/cyclin T1 (Homo sapiens, UniProt P50750). Nature of the series: CDK 9 assay (CTD peptide substrate). It counts as biochemical. The settings on record: read-out: Kinase Inhibition pIC50 CDK9-cyclin T1 (converted). In short, it runs like this: as §2
CDK9/cyclin T1, sequence (P50750 whole entry): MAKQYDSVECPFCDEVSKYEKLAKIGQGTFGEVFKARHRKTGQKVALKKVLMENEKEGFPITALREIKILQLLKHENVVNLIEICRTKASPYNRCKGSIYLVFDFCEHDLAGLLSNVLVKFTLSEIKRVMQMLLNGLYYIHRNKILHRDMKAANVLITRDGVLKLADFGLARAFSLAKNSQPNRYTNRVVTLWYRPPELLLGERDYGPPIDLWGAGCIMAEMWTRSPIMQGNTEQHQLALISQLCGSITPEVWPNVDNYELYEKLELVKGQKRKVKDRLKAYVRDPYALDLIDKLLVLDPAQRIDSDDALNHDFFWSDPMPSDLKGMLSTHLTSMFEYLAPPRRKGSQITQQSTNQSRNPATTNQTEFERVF
CDK9/cyclin T1, sequence (O60563 whole entry partner): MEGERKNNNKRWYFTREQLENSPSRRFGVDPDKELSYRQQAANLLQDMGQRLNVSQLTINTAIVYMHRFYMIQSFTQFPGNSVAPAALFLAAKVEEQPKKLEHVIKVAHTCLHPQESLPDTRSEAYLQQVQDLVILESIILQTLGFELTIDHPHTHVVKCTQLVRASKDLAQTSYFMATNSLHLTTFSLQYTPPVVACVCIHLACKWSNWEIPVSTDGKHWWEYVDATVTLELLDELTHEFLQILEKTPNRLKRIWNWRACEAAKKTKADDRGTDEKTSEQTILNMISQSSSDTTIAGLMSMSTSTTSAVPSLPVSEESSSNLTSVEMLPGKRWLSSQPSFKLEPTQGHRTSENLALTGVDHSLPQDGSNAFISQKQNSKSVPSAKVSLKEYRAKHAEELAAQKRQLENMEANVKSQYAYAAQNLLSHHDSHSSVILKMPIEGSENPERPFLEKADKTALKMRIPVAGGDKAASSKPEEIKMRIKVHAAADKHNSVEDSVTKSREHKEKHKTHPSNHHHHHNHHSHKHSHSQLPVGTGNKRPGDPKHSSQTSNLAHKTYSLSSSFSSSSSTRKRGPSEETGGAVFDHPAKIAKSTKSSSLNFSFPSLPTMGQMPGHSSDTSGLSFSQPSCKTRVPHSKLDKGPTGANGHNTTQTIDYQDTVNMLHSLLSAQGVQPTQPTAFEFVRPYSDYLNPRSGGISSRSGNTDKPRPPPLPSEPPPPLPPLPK
A further series deals with GSK3b (Homo sapiens, UniProt P49841). The experiment in a line: Kinase assay (radioactive phosphate incorporation), GSK-3b. It counts as biochemical. The settings on record: read-out: Kinase Inhibition pIC50 GSK-3b (converted). In a few lines:
as §1

The target in series [1] is T1, Flt3 (FMS-like tyrosine kinase-3) (Homo sapiens, UniProt P36888).
T1 sequence (P36888 27-993): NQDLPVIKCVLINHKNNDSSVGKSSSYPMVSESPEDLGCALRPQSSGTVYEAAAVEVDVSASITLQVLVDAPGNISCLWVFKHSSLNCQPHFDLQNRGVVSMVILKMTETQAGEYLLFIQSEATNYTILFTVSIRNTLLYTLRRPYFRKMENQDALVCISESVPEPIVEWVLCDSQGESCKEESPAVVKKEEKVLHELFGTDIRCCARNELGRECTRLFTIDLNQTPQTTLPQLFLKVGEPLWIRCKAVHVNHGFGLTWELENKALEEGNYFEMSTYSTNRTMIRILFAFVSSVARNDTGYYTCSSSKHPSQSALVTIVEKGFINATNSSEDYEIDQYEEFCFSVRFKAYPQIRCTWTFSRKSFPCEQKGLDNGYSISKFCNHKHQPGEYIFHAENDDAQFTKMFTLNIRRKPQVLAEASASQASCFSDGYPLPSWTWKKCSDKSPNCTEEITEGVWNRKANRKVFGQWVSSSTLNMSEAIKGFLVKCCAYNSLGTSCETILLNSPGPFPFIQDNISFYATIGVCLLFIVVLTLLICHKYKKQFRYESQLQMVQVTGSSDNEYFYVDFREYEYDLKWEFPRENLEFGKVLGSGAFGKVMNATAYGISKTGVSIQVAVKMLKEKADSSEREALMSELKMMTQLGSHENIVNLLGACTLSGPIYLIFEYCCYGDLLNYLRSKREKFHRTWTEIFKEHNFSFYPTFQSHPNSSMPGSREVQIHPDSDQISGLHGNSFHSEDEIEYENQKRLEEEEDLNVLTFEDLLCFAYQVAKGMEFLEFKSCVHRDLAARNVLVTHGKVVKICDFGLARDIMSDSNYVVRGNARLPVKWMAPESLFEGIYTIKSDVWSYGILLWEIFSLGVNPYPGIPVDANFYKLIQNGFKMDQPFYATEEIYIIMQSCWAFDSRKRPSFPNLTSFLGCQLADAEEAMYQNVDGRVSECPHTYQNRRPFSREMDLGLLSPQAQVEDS
Nature of the series: Kinase assay (radioactive phosphate incorporation), Flt3. The format is biochemical. To be noted: pIC50 is -log(IC50, M), read-out: Kinase Inhibition pIC50 Flt3 (converted). In short, it runs like this: as §1

The next series addresses T2, Aurora A kinase (Homo sapiens, UniProt O14965).
T2 construct: purchased
T2 sequence (O14965 1-403): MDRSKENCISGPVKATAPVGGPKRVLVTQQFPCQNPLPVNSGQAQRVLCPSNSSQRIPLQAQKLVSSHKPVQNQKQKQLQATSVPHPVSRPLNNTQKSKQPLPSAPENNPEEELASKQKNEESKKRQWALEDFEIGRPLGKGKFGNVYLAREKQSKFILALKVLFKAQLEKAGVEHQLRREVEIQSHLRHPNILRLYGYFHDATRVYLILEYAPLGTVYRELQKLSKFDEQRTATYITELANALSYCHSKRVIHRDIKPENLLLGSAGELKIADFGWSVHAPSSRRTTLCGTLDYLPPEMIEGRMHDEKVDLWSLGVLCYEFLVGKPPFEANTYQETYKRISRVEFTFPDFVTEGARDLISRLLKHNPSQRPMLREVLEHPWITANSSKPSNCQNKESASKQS
The experiment in a line: Aurora-A (human) kinase assay (Kemptide substrate). To be noted: pIC50 is -log(IC50, M); 15 μM ATP; read-out: Kinase Inhibition pIC50 Aurora A kinase (converted). The format is biochemical. In a few lines: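 Kemptide (LRRASLG, 200 μM) phosphorylation by 5-10 ng commercial aurora-A measured as [γ-33P] incorporation at 15 μM ATP with 10 mM Mg acetate, pH 7.0 MOPS buffer. Reaction ran 40 min at room temperature; acid-stopped, captured on P81 filters, scintillation read.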

Another series has as its target CDK1-cyclin B (Homo sapiens, UniProt P06493). The experiment in a line: Kinase assay (radioactive phosphate incorporation), CDK1-cyclin B. It counts as biochemical. The settings on record: read-out: Kinase Inhibition pIC50 CDK1-cyclin B (converted). In short, it runs like this: as §1
The target in another series is CDK4-cyclin D1 (Homo sapiens, UniProt P11802). Nature of the series: Kinase assay (radioactive phosphate incorporation), CDK4-cyclin D1. The format is biochemical. To be noted: read-out: Kinase Inhibition pIC50 CDK4-cyclin D1 (converted). In a few lines:
as §1

Molecules are shown by their SMILES.

CDK1-cyclin B, sequence (P06493 whole entry): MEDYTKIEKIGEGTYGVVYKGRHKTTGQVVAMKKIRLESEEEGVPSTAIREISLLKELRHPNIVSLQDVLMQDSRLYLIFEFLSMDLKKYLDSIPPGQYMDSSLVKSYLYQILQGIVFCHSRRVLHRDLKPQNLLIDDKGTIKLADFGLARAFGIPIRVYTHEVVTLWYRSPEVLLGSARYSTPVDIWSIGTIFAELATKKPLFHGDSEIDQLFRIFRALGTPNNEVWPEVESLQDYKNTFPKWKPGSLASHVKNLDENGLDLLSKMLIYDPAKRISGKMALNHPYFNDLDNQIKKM
CDK1-cyclin B, sequence (P14635 whole entry partner): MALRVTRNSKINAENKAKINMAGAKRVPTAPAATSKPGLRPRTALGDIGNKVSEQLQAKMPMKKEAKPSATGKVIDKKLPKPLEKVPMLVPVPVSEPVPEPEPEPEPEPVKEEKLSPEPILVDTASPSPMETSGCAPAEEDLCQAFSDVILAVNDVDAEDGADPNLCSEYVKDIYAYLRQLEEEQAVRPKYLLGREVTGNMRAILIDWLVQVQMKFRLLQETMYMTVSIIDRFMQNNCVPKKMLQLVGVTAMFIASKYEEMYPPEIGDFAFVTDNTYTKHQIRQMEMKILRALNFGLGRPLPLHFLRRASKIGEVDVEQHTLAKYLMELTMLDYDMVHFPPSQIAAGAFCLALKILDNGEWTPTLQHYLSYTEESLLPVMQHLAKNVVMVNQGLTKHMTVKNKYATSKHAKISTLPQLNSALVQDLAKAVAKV
GSK3b, sequence (P49841 whole entry, species assumed): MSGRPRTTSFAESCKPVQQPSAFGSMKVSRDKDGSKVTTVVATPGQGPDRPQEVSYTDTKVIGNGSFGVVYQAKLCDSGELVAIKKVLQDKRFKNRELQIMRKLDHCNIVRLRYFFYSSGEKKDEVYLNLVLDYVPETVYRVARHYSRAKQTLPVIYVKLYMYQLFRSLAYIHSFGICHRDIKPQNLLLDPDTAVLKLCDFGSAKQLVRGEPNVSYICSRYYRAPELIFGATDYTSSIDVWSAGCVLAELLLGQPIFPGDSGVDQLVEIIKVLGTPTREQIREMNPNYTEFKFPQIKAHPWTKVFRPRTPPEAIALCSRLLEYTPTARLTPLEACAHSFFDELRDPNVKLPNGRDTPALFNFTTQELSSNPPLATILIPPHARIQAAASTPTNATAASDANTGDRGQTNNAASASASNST
CDK4-cyclin D1, sequence (P11802 whole entry): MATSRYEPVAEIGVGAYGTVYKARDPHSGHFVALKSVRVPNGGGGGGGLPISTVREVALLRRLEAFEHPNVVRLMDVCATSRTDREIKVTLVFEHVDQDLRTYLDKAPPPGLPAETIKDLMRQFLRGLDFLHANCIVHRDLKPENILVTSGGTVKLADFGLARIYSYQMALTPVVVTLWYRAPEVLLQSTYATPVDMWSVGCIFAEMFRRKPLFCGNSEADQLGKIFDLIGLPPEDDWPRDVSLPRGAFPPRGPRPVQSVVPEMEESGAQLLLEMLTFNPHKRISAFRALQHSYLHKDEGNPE
CDK4-cyclin D1, sequence (P24385 whole entry partner): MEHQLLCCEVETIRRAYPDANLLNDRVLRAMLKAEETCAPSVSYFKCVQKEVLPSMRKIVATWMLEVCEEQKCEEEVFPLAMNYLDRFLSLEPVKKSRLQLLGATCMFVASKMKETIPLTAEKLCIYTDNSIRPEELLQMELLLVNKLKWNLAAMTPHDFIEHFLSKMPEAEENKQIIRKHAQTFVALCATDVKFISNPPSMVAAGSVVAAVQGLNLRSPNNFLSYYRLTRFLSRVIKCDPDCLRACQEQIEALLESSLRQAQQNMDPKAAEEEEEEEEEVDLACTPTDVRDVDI

Consider `CCNc1nc(C)c(-c2ccnc(Nc3cccc(CNS(=O)(=O)C(F)(F)F)c3)n2)s1` [Compound 10, N-{3-[4-(2-Ethylamino-4-methyl-thiazol-5-yl)-pyrimidin-2-ylamino]-benzyl}-C,C,C-trifluoro-methanesulfonamide], for which the IC50 is 6310 nM on CDK2-cyclin A; 1580 nM on CDK2-cycline E; 6310 nM on CDK7/cyclin H; 316 nM on CDK9/cyclin T1; 6310 nM on GSK3b; 158 nM in [1]. Also, on Aurora A kinase, the IC50 was 2000 nM.

`Cc1nc(N)sc1-c1ccnc(Nc2cccc(CNS(C)(=O)=O)c2)n1` [Compound 6, N-{3-[4-(2-Amino-4-methyl-thiazol-5-yl)-pyrimidin-2-ylamino]-benzyl}-methanesulfonamide]: the IC50 at CDK1-cyclin B was 1000 nM; on CDK2-cyclin A, 398 nM; on CDK2-cycline E, 100 nM; at CDK4-cyclin D1 it was 200 nM; at CDK7/cyclin H, 126 nM; on CDK9/cyclin T1 it was 7.94 nM. In addition, the results for the IC50 (in series [1]; at Aurora A kinase) were 50.1 nM and 126 nM, respectively.

With `COCCNS(=O)(=O)c1cccc(Nc2nccc(-c3sc(C)nc3C)n2)c1` [Compound 56, 3-[4-(2,4-Dimethyl-thiazol-5-yl)-pyrimidin-2-ylamino]-N-(2-methoxy-ethyl)-benzenesulfonamide], the melting point was 197 to 198 °C. In addition, the IC50 on CDK2-cyclin A is 3980 nM. Also, on CDK7/cyclin H, the IC50 was 5010 nM. Further, the IC50 at CDK9/cyclin T1 is 501 nM. Further, the IC50 at GSK3b is 1260 nM. The IC50 on Aurora A kinase is 126 nM.

Take `CCNS(=O)(=O)c1cccc(Nc2nccc(-c3sc(NC)nc3C)n2)c1` [Compound 31, N-Ethyl-3-[4-(4-methyl-2-methylamino-thiazol-5-yl)-pyrimidin-2-ylamino]-benzenesulfonamide]: the IC50 is 501 nM at CDK1-cyclin B; 1260 nM on CDK2-cyclin A; 251 nM on CDK2-cycline E; 50.1 nM on CDK4-cyclin D1; 1000 nM on CDK7/cyclin H; 20 nM at CDK9/cyclin T1. The IC50 (in series [1]; at Aurora A kinase) was 63.1 nM in each case.

Consider `CCNc1nc(C)c(-c2ccnc(Nc3ccc(N4CCN(Cc5ccccc5)CC4)cc3)n2)s1` [Compound 60, [4-(4-Benzyl-piperazin-1-yl)-phenyl]-[4-(2-ethylamino-4-methyl-thiazol-5-yl)-pyrimidin-2-yl]-amine], for which the IC50 at CDK1-cyclin B is 6310 nM; at CDK2-cyclin A, 3160 nM; at CDK2-cycline E, 631 nM; on CDK4-cyclin D1, 158 nM; at CDK7/cyclin H it was 200 nM; on CDK9/cyclin T1, 316 nM. The figures for the IC50 (in series [1]; on Aurora A kinase) were 39.8 nM and 50.1 nM, respectively.

In the case of `CCNc1nc(C)c(-c2ccnc(Nc3cccc(CC(=O)OCCOC)c3)n2)s1` [Compound 45, {3-[4-(2-Ethylamino-4-methyl-thiazol-5-yl)-pyrimidin-2-ylamino]-phenyl}-acetic acid 2-methoxy-ethyl ester], the IC50 at CDK1-cyclin B was 5010 nM; at CDK2-cyclin A it was 3160 nM; at CDK2-cycline E it was 2510 nM; on CDK4-cyclin D1, 3160 nM; at CDK7/cyclin H it was 3980 nM; at CDK9/cyclin T1 it was 398 nM. Moreover, the results for the IC50 (in [1]; at Aurora A kinase) were 100 nM and 15.8 nM, respectively.

In the case of `CCNc1nc(C)c(-c2ccnc(Nc3cccc(S(=O)(=O)NC)c3)n2)s1` [Compound 22, 3-[4-(2-Ethylamino-4-methyl-thiazol-5-yl)-pyrimidin-2-ylamino]-N-methyl-benzenesulfonamide], the IC50 at CDK1-cyclin B is 1000 nM; at CDK2-cyclin A, 794 nM; on CDK2-cycline E, 100 nM; on CDK4-cyclin D1, 200 nM; on CDK7/cyclin H it was 100 nM; at CDK9/cyclin T1, 39.8 nM. For the same compound, the IC50 in series [1] was 79.4 nM; at Aurora A kinase, 63.1 nM.

Take `CCNc1nc(C)c(-c2ccnc(Nc3cccc(S(C)(=O)=O)c3)n2)s1` [Compound 28, [4-(2-Ethylamino-4-methyl-thiazol-5-yl)-pyrimidin-2-yl]-(3-methanesulfonyl-phenyl)-amine]: the IC50 was 794 nM at CDK2-cyclin A; 15.8 nM at CDK2-cycline E; 251 nM at CDK4-cyclin D1; 100 nM on CDK7/cyclin H; 3.16 nM at CDK9/cyclin T1; 631 nM at GSK3b. Moreover, in series [1], the IC50 is 79.4 nM.

As for `CNc1nc(C)c(-c2ccnc(Nc3cccc(N4CCNCC4)c3)n2)s1` [Compound 7, [4-(4-Methyl-2-methylamino-thiazol-5-yl)-pyrimidin-2-yl]-(3-piperazin-1-yl-phenyl)-amine], the IC50 on CDK1-cyclin B was 3160 nM; at CDK2-cyclin A, 2510 nM; on CDK2-cycline E, 398 nM; on CDK4-cyclin D1, 1000 nM; on CDK7/cyclin H, 631 nM; on CDK9/cyclin T1, 200 nM. Further, the IC50 in series [1] is 12.6 nM; at Aurora A kinase, 200 nM.

Take `Cc1nc(N)sc1-c1ccnc(Nc2ccc(N3CCNCC3)cc2)n1` [Compound 61, [4-(2-Amino-4-methyl-thiazol-5-yl)-pyrimidin-2-yl]-(4-piperazin-1-yl-phenyl)-amine]: the IC50 at CDK1-cyclin B was 6310 nM; at CDK2-cyclin A, 2000 nM; on CDK2-cycline E it was 398 nM; at CDK4-cyclin D1 it was 251 nM; at CDK7/cyclin H, 398 nM; on CDK9/cyclin T1, 158 nM. In addition, the IC50 in [1] is 63.1 nM; on Aurora A kinase, 20 nM.
